Experimental data taken from patent US4544662A, “1'-Substituted-spiro[oxazolidine-5-3'-indoline]-2,2', 4-trione derivatives” (Imperial Chemical Industries, priority 1982, dated 1985).

Target: T1, aldose reductase (Bos taurus, UniProt P16116)
T1 construct: purified aldose reductase is isolated in known manner from bovine lenses; from tissue; host or cells: bovine lens
Experiment: in vitro inhibition of purified aldose reductase isolated from bovine lenses (spectrophotometric)
Type: biochemical
Details: purified bovine lens aldose reductase; reduction of glucose to sorbitol; read-out: IC50 (concentration necessary to produce 50% inhibition of enzymic activity)
Method: Thus, purified aldose reductase is isolated in known manner from bovine lenses. The percentage inhibition of this enzyme's ability in vitro to reduce aldoses to polyhydric alcohols, and particularly to reduce glucose to sorbitol, caused by a test compound is then determined using standard spectrophotometric methods.

| Structure (SMILES) | IC50 [nM] |
| --- | --- |
| Cc1cccc2c1N(Cc1ccc(Br)cc1F)C(=O)C21OC(=O)NC1=O (centres unmarked) [Example 6, 1'-(4-bromo-2-fluorobenzyl)-7'-methylspiro[oxazolidine-5,3'-indoline]-2,2',4-trione] | 20 |
| Cc1cc(Cl)cc2c1N(Cc1ccc(Cl)c(Cl)c1)C(=O)C21OC(=O)NC1=O (centres unmarked) [Example 7, 1'-(3,4-dichlorobenzyl)-5'-chloro-7'-methylspiro[oxazolidine-5,3'-indoline]-2,2',4-trione] | 25 |
